Results on 2 molecules are retold here after US10548854B2, “Manufacture of nonelectronic, active-infusion patch and device for transdermal delivery across skin” (The Hong Kong University of Science and Technology, priority 2012, dated 2020).

Data set [1] in a line: In-vivo DFS delivery across skin by microneedle plates. Also on record: species or system Sprague Dawley rats. The note with it: 200 μl of 5 mg/ml DFS bolus, skin sampled after 5 min. The protocol: A in-vivo test was conducted on Sprague Dawley rates between approximately 230 g-250 g to analyze DFS delivery. […] 200 μl of 5 mg/ml DFS in phosphate buffered saline (PBS) was injected through rats' naked skin with either zeolite microneedles or commercial microneedles in bolus. A negative control consisted of placing excess DFS solution on rats' naked skin. After 5 min, the skins were washed by iced DI water. About 1 mm diameter of skin samples at the injection sites were carefully cut and then weighed in 2 ml centrifuge tubes. Then the skin samples were homogenized in 5 fold PBS buffer by sonication. DFS was extracted from the homogenate by liquid-phase extraction using 500 μl ethyl-acetate for twice. The ethyl-acetate was collected into 1.5 ml centrifuge tubes and then removed under vacuum. The residues were reconstituted by 500 μl ACN:H2O (50:50 w/w ratio) and 200 μl of the reconstituted solution was send for UPLC analysis.

The nature of data set [2]: In-vitro transdermal delivery across porcine ear skin in vertical diffusion cell (active infusion microneedle patch).
Text: (§1) Porcine ears were freshly obtained from a local slaughter facility, gently washed with running tap water, and chopped into pieces of 50 mm in width. Visual observation was done to check if the skins were free from lesions and infections. Hairs at the back of the ear were carefully removed by clipper. Full thickness skins were obtained using manual-operated dermatome with uniform insertion force and angle. The split skins were cut into discs with 40 mm diameter. The skins were then sprayed and rubbed with 75% ethanol for 1 mm to remove fatty tissues and dirt, followed by DI water washing. Thereafter the skins were blotted with a cellulose-based fiber tissue, such as […] ™, wrapped with aluminum foil, and stored in a −20° C. refrigerator until further use. All prepared porcine skin was used within 2 weeks.
(§2) Vertical diffusion cell was filled with 7 mL phosphate buffered saline (PBS) (137 mM sodium chloride (NaCl), 2.7 mM potassium chloride (KCl), 4.3 mM sodium phosphate dibasic heptahydrate (NaH2PO4.7H2O), and 1.6 mM potassium phosphate monobasic (KH2PO4), pH 7.4) and pre-run at 300 rpm with bath circulator for 1 hr to achieve 37° C. Porcine skin was thawed by soaking in PBS at room temperature for 1 hr. After that, the porcine skin was mounted between the receptor and the donor cell of the diffusion system. The stratum corneum of the skin faced the donor cell while the dermis side faced the receptor cell. The skin was handled with care to avoid bubble accumulation on the receptor side of the skin. Diclofenac sodium (DFS) or insulin (70 μL) and DI water (500 μL) were loaded into the drug and water reservoirs, respectively, through the resealable injector ports. A patch, such as those described in previous examples, was gently shaken to ensure water could make contact with the dried hydrogel inside. The patch was applied on the donor side of the skin by finger force, with the help of adhesive tapes to keep the patch in position. Samples (1 mL) were withdrawn from the receptor cell every hour with immediate replenishment of the same volume of fresh PBS. The tests were done with patches bonded with commercial (ME-C-600), zeolite (SSM-O-150), or plastic (P-O-500) microneedles.
(§3) Quantification of DFS in samples was done by analysis under ultra-performance liquid chromatography (UPLC). With a gradient method A:B=70%:30% to 10%: 90% in 4 min (A=0.02% trifluoroacetic acid (TFA) in H2O; B=0.02% TFA in acetonitrile (ACN)), flow rate=0.45 mL/min with detection wavelength=210 nm. […] Negative control is achieved by direct pipetting of a known amount of drug on skin for diffusion.
(§4) A plastic microneedle plate was used in this experiment.
The conditions of data set [3]: pig, 8 h, pH 7.4.
Text: as §1, §2, §3, §4
The conditions of data set [4]: insulin administration by the transdermal patch, compared with other groups.
Experimental: An in vivo test of insulin delivery was conducted on Sprague Dawley rats weighing between approximately 230 g-250 g, which were fasting overnight, but free to access water one day before the test. The rats were anesthetized by a ketamine/xylazine cocktail, and the abdominal hairs were completely removed by a hair clipper followed by chemical depilatory creams. About 80 μl of 100 IU/ml human insulin solution was transdermal administrated to individual rats by either zeolite microneedles or the same type of commercial microneedles used in Example 12. Fixed dosed 0.1 IU insulin solution or saline was also subcutaneously injected by syringes to simulate the positive and negative control respectively. The rats' blood glucose levels were recorded by a portable glucose meter (Roche, Accu-Chek Performa Nano) for 6 hours at different time intervals. For the first 4 hours 200 μl of blood samples were also collected by squeezing the rats' tails. The blood samples were centrifuge at 13000 G for 3 min and then the blood plasma was pipetted into 1.5 ml centrifuge tubes and stored under −80° C. for blood insulin test. The blood insulin levels were tested by an ELISA kit (Mercodia, Human Insulin ELISA). […]
In pharmacokinetics, the administration efficiency of a certain drug is commonly evaluated by its Cmax and Tmax. […]
Data set [5] relates to blood glucose level. The note with it: micro-needles and pressure force (10 psi); cited from earlier work.
The subject of data set [6] is blood glucose level. Put plainly: In-vivo insulin delivery, blood glucose level. Also on record: species or system Sprague Dawley rats. The settings on record: after 1 hour. The protocol: For all zeolite microneedle, commercial microneedle, and the positive control, a significant pharmaceutical effect could be observed after 1 hour, when the blood glucose level of the rats dropped by about 4-fold from the original level and was subsequently maintained for some hours.

`O=C(O)Cc1ccccc1Nc1c(Cl)cccc1Cl` [DFS, Diclofenac sodium]: the “increase of transdermal DFS delivery compared with the negative control” value in data set [1] (commercial microneedle) is recorded as roughly 5 times. Besides, the “increase in delivery amount compared with the commercial microneedle” value in data set [1] (zeolite microneedle) is “more than 3 fold”. For the same molecule, the DFS delivery rate result in data set [2] (zeolite microneedle plate adhered to the patch, versus negative control) was “improves delivery rates”. In addition, in data set [3], the “Percentage of DFS delivered” value is on record as 17.6±3.2% and the “Total amount of drug delivered” value is on record as 60.9±6.1%.
Regarding insulin, the “Cmax (blood insulin level)” value in data set [4] is “highest”. Besides, the “Tmax (blood insulin level)” value in data set [4] is on record as “fastest”. Moreover, the “lowering of normalized blood glucose level” value in the data set with blood glucose level [5] was 70%. For the same molecule, the “drop of blood glucose level from the original level” value in the data set on blood glucose level [6] (commercial microneedle, about 80 μl of 100 IU/ml human insulin) is listed as “about 4 fold”; in the data set on blood glucose level [6] (positive control: 0.1 IU insulin subcutaneously injected by syringe) it was “about 4 fold”; with blood glucose level [6] (zeolite microneedle, about 80 μl of 100 IU/ml human insulin) it was “about 4 fold”. For the same molecule, the “insulin delivery rate profile” value in data set [2] (active infusion patch with zeolite and commercial microneedles) was “linear insulin delivery rate”. Further, the “insulin permeated across skin” value in data set [2] (non-porated pig skin, skin patch test (negative control), 70 μL of 4.5 mg/mL insulin) is recorded as “less than 5%”.
